# Experimental data published in patent US9943524B2, “Use of alkaloid in preparing pharmaceutical compositions for preventing or treating pulmonary fibrosis” (China Pharmaceutical University, priority 2014, dated 2018).
# How the values were obtained:
# [1] = tested on: pulmonary fibrosis mice induced by bleomycin; assay: Activity of 8 alkaloids and pentoxyverine against pulmonary fibrosis in mice (Embodiment 3); type: in vivo, C57BL/6 mice; conditions: intragastric from first day after model to 21th day; alkaloids and pentoxyverine 30 mg/kg (FIG. 1B, 1C)
# Protocol: (§1) Female C57BL/6 mice (eight-week-old) are established for models after 7 days, the time is set for the mice to adapt to the environment. After fasts for overnight, the mice are anaesthetized by 3% chloral hydrate and fixed. Sterilize and incise neck skin longitudinally as little injury as possible. Split fascia and muscle with tweezers longitudinally and expose the windpipe. Then, about 35 μl (3.5 mg/kg) bleomycin are injected into windpipe with microinjector. Put the mice upright rapidly and rotate the mice for 3˜5 minutes, so that bleomycin is able to enter into the pulmones uniformly. Observe the breathing of mice. Sterilize neck injury with 75% alcohol tampon and stitch the wound, then 1 drop or 2 drops of benzylpenicillin injection is/are dripped into the suture. Put the mice back into dry and clean cages, and feed them normally after waking up. Operations are done on operating table at about […]. Physiological saline using in injection is injected into windpipe of sham operation group.
# Experimental mice are randomly divided into 12 groups: 10 mice in model group, 10 mice in pentoxyverine group, and 5 mice in any other group. Group 1 is sham operation group, group 2 is model group, group 3 is pentoxyverine group, group 4 is positive drug pirfenidone group, groups 5-12 are compounds I-VIII administration group respectively. Models of groups 2-12 are established by using bleomycin with the same method used in embodiment 2. From the first day after successfully establishing model, 30 mg/kg pentoxyverine and 300 mg/kg pirfenidone are given to group 3 and group 4 by means of intragastric administration respectively. 30 mg/kg compounds I-VIII are given to groups 5-12 also by means of intragastric administration respectively. Besides, same doses of solvent are given to sham operation group and model group until the 21th day. After the last intragastric administration, the mice are killed to collect the lung tissue, and the right lobule is used for determining the content of hydroxyproline, while the left lobule is used for preparing pathological sections.
# [2] = tested on: pulmonary fibrosis mice induced by bleomycin; assay: Determination of mice mortality (Embodiment 4); type: in vivo, C57BL/6 mice
# Protocol: as §1
# (§2) Model animals are divided into prevention groups and treatment groups, then drugs are given to the two groups respectively. According to internationally methods of drug administration, drugs are given continuously to the prevention groups by means of intragastric administration from the second day after successfully establishing model to the 14th day, and drugs are given continuously to treatment groups by means of intragastric administration from the 8th day after successfully establishing model to the 21th day. Groups and dosage regimen are shown in tab.1.
# From the 0th day (the day when the model is established) to 14th day, drugs are given continuously to prevention groups. From the 8th day after successfully establishing model to 21th day, drugs are given continuously to treatment groups. Statistical analysis of death of animals in each group is carried on every day and the survival rate of animals in each group is calculated. Results are shown in tab.2.
# [3] = tested on: pulmonary fibrosis mice induced by bleomycin; assay: Detection of the mice lung index (Embodiment 4); type: in vivo, C57BL/6 mice; conditions: 30 and 60 mg/kg, prevention groups and treatment groups, versus model group (FIG. 2); lower dose better in prevention groups
# Protocol: as §1, §2
# After the last intragastric administration, the mice are killed to strip and weigh the lung, and the lung index is the lung weight divided by mouse weight (FIG. 2). […] In general, the 3 compounds have better effect in decreasing the mortality of mice than the positive drug pirfenidone.
# [4] = tested on: pulmonary fibrosis mice induced by bleomycin; assay: HE stained pathological evaluation and inflammation scores (Embodiment 4); type: in vivo, C57BL/6 mice
# Protocol: as §1, §2
# After the last intragastric administration, the mice are anaesthetized and killed to collect the lung tissue. Immerse the left lobule in 10% formalin, and embed it by paraffin after being fixed, then cut it into slices to observe the pathological changes by HE staining. As is shown in FIG. 3, structures of lobules of sham operation group are normal and the alveolar walls are complete without inflammation and fibrosis pathological changes. Obvious inflammation injury and masses of tissue begin to appear in lung of mice in model group, then the normal lung tissue disappears and alveolar is blocked. […] The groups with lower dose (30 mg/kg) of the 3 compounds show better effect than the groups with higher dose. The pulmonary inflammation disappears and alveolar structure is clear in groups with lower dose.
# Inflammatory classification semi quantitative statistics analysis is made according to results of HE staining. Grade 0 represents normal tissue or minimal inflammation change. Grade 1 (+) represents mild to moderate inflammation change, and lung tissue without obvious damage. Grade 2 (++) represents moderate to severe inflammation injury, and alveolar septum is thickened to form masses of tissue, or lung tissue with damage caused by partial area inflammation. Grade 3 (+++) represents severe inflammation injury, and structure of restricted regions in lung tissue is severely damaged, thus resulting in obliteration. […] The groups with lower dose show better effect than the groups with higher dose. In general, the 3 compounds have better effect in decreasing the pulmonary inflammation than the positive drug pirfenidone.
# [5] = tested on: pulmonary fibrosis mice induced by bleomycin; assay: Masson stained pathological evaluation and imaging analysis of collagen (Embodiment 4); type: in vivo, C57BL/6 mice
# Protocol: as §1, §2
# Masson staining is a method aiming at specific staining of fibrillar collagen. After the last intragastric administration, the mice are anaesthetized and killed to collect the lung tissue. Immerse the left lobule in 10% formalin, and embed it by paraffin after being fixed, then is cut it into slices to observe the collagen deposition by Masson staining. Semi quantitative analysis is made by using Image-Pro Plus6.0. Integrated optical density (IOD) of collagen in each visual field is measured after Masson staining. 5 samples are studied in each group and 5 visual fields are picked out from each group. Statistics analysis is made by calculating mean value which is considered as relative amount of collagen in each group.
# [6] = tested on: pulmonary fibrosis mice induced by bleomycin; assay: Content determination of hydroxyproline in lung tissue (Embodiment 4); type: in vivo, C57BL/6 mice; conditions: 30 mg/kg and 60 mg/kg, prevention groups and treatment groups (FIG. 7); lower dose slightly better
# Protocol: as §1, §2
# Hydroxyproline mainly exists in collagen protein, but there is only a very small amounts in elastin proteins and it cannot found in other proteins. Therefore the content of collagen protein can be indicated by measuring the content of hydroxyproline, so as to evaluate the degree of pulmonary fibrosis. Method of test kit (which is purchased from Nanjing Jiancheng Biological Technology Co., Ltd.) according to specification is used in determination of hydroxyproline. Results can be seen in FIG. 7.
# TGF-β1 [7] = assay: ELISA content determination of TGF-β1 in mice lung tissue (Embodiment 4); type: in vivo, C57BL/6 mice; conditions: 30 mg/kg and 60 mg/kg, prevention groups and treatment groups, versus model group (FIG. 8); lower dose more effective
# Protocol: as §1, §2
# TGF-β1 is a universally recognized strong pro-fibrotic cytokine. It can stimulate the cells to synthesize and secrete extracellular matrix as well as exchange the activity of matrix-degrading enzyme component and directly increase the deposition of ECM. The progress of pulmonary fibrosis can be slowed down by decreasing the content of TGF-β1 in lung tissue. Elisa test kit (which is purchased from Shanghai Excell Biological Technology Co., Ltd.) according to specification is used in the determination of TGF-β1 in mice lung tissue. Results can be seen in FIG. 8.
# [8] = tested on: cough of guinea pig induced by citric acid; conditions: cited from earlier work
# cough reflex pathway = conditions: in vivo; cited from earlier work
# TGF-β1 [9] = conditions: cited from earlier work
# [10] = cited from earlier work
smiles,measurement,setting,value
"CC[C@@H]1[C@H]2CCCCN3[C@H]2[C@@H](C[C@H]3[C@@H]2C[C@H](C)C(=O)O2)[C@H]2[C@@H]1OC(=O)[C@H]2C [Compound VII, Neotuberostemonine]","pulmonary inflammation, injury and fibrosis in HE and Masson stained pathological sections",[1],recover to nearly normal structure
same,Survival rate,"[2]; prevention groups, 30 mg/kg intragastric to the 14th day",100%
same,Mortality (number of dead animals),"[2]; prevention groups, 30 mg/kg intragastric to the 14th day, 10 animals",0
same,Survival rate,"[2]; prevention groups, 60 mg/kg intragastric to the 14th day",80%
same,Mortality (number of dead animals),"[2]; prevention groups, 60 mg/kg intragastric to the 14th day, 10 animals",2
same,"protective effect on model mice (mortality), comparison among compounds","[2]; prevention groups, lower dose (30 mg/kg) better",more effective than compound VIII
same,Survival rate,"[2]; treatment groups, 30 mg/kg intragastric from the 8th to the 21th day",89%
same,Mortality (number of dead animals),"[2]; treatment groups, 30 mg/kg intragastric from the 8th to the 21th day, 18 animals",2
same,Survival rate,"[2]; treatment groups, 60 mg/kg intragastric from the 8th to the 21th day",78%
same,Mortality (number of dead animals),"[2]; treatment groups, 60 mg/kg intragastric from the 8th to the 21th day, 18 animals",4
same,lung index (lung weight divided by mouse weight),[3],significantly decrease the lung index
same,"lung tissue inflammation scores (HE stained, grade 0-3)","[4]; 30, 60 mg/kg, prevention and treatment groups (FIG. 4), lower dose better",significantly decrease the pulmonary inflammation
same,"pulmonary inflammation and injury, HE stained pathological changes","[4]; prevention groups and treatment groups (FIG. 3), lower dose (30 mg/kg) better than higher dose",significantly alleviate the pulmonary inflammation
same,"collagen deposition (Masson staining, integrated optical density)","[5]; 30, 60 mg/kg, prevention and treatment groups (FIG. 5, 6), lower dose better in prevention, higher dose better in treatment",significantly decrease collagen deposition
same,"effect in decreasing the collagen deposition, comparison among compounds","[5]; in general, Masson staining",slightly better than that of compound VIII
same,content of hydroxyproline in lung tissue,[6],effectively decrease the content of hydroxyproline
same,content of TGF-β1 in lung tissue (ELISA),TGF-β1 [7],effectively decrease the content of TGF-β1
same,antitussive effect,[8],very good antitussive effect
same,"antitussive activities, comparison among stemona tuberosa alkaloids",cough reflex pathway,similar
"Cc1ccc(=O)n(-c2ccccc2)c1 [Pirfenidone, pirfenidone, reference compound]",Survival rate,"[2]; prevention groups, 300 mg/kg intragastric to the 14th day",70%
same,Mortality (number of dead animals),"[2]; prevention groups, 300 mg/kg intragastric to the 14th day, 10 animals",3
same,Survival rate,"[2]; treatment groups, 300 mg/kg intragastric from the 8th to the 21th day",67%
same,Mortality (number of dead animals),"[2]; treatment groups, 300 mg/kg intragastric from the 8th to the 21th day, 18 animals",6
same,inhibition of pro-fibrogenic factors,TGF-β1 [9],can inhibit the pro-fibrogenic factors such as TGF-β1
same,clinical side effects,[10],photosensitization
